In BigSolDB 2.1:

COc1ccccc1OCCNCC(O)COc1cccc2[nH]c3ccccc3c12 (stereo not given)
solubility (mole fraction) (in PEG-400, 288.15 K): 0.0501 | solubility (mole fraction) (in PEG-400, 293.15 K): 0.0539 | solubility (mole fraction) (in PEG-400, 298.15 K): 0.0582 | solubility (mole fraction) (in PEG-400, 303.15 K): 0.062 | solubility (mole fraction) (in PEG-400, 308.15 K): 0.0661 | solubility (mole fraction) (in THF, 288.15 K): 0.0211 | solubility (mole fraction) (in THF, 293.15 K): 0.0235 | solubility (mole fraction) (in THF, 298.15 K): 0.0261 | solubility (mole fraction) (in THF, 303.15 K): 0.0291 | solubility (mole fraction) (in THF, 308.15 K): 0.0321 | solubility (mole fraction) (in acetone, 288.15 K): 0.0125 | solubility (mole fraction) (in acetone, 293.15 K): 0.0147 | solubility (mole fraction) (in acetone, 298.15 K): 0.0173 | solubility (mole fraction) (in acetone, 303.15 K): 0.0201 | solubility (mole fraction) (in acetone, 308.15 K): 0.023 | solubility (mole fraction) (in dichloromethane, 288.15 K): 0.00254 | solubility (mole fraction) (in dichloromethane, 293.15 K): 0.00334 | solubility (mole fraction) (in dichloromethane, 298.15 K): 0.00429 | solubility (mole fraction) (in dichloromethane, 303.15 K): 0.00556 | solubility (mole fraction) (in dichloromethane, 308.15 K): 0.00722 | solubility (mole fraction) (in ethanol, 288.15 K): 0.000677 | solubility (mole fraction) (in ethanol, 293.15 K): 0.000846 | solubility (mole fraction) (in ethanol, 298.15 K): 0.00106 | solubility (mole fraction) (in ethanol, 303.15 K): 0.00128 | solubility (mole fraction) (in ethanol, 308.15 K): 0.00158 | solubility (mole fraction) (in ethyl acetate, 288.15 K): 0.0015 | solubility (mole fraction) (in ethyl acetate, 293.15 K): 0.00189 | solubility (mole fraction) (in ethyl acetate, 298.15 K): 0.00239 | solubility (mole fraction) (in ethyl acetate, 303.15 K): 0.00292 | solubility (mole fraction) (in ethyl acetate, 308.15 K): 0.00362 | solubility (mole fraction) (in glycerin, 288.15 K): 0.000273 | solubility (mole fraction) (in glycerin, 293.15 K): 0.000307 | solubility (mole fraction) (in glycerin, 298.15 K): 0.000342 | solubility (mole fraction) (in glycerin, 303.15 K): 0.00038 | solubility (mole fraction) (in glycerin, 308.15 K): 0.000421 | solubility (mole fraction) (in isopropanol, 288.15 K): 0.000421 | solubility (mole fraction) (in isopropanol, 293.15 K): 0.000555 | solubility (mole fraction) (in isopropanol, 298.15 K): 0.000726 | solubility (mole fraction) (in isopropanol, 303.15 K): 0.000947 | solubility (mole fraction) (in isopropanol, 308.15 K): 0.00124 | solubility (mole fraction) (in methanol, 288.15 K): 0.000767 | solubility (mole fraction) (in methanol, 293.15 K): 0.000959 | solubility (mole fraction) (in methanol, 298.15 K): 0.0012 | solubility (mole fraction) (in methanol, 303.15 K): 0.00149 | solubility (mole fraction) (in methanol, 308.15 K): 0.00185 | solubility (mole fraction) (in n-butanol, 288.15 K): 0.000678 | solubility (mole fraction) (in n-butanol, 293.15 K): 0.00079 | solubility (mole fraction) (in n-butanol, 298.15 K): 0.000924 | solubility (mole fraction) (in n-butanol, 303.15 K): 0.00108 | solubility (mole fraction) (in n-butanol, 308.15 K): 0.00125 | solubility (mole fraction) (in n-propanol, 288.15 K): 0.000634 | solubility (mole fraction) (in n-propanol, 293.15 K): 0.000791 | solubility (mole fraction) (in n-propanol, 298.15 K): 0.000996 | solubility (mole fraction) (in n-propanol, 303.15 K): 0.00122 | solubility (mole fraction) (in n-propanol, 308.15 K): 0.00149 | solubility (mole fraction) (in propylene glycol, 288.15 K): 0.00138 | solubility (mole fraction) (in propylene glycol, 293.15 K): 0.00155 | solubility (mole fraction) (in propylene glycol, 298.15 K): 0.00174 | solubility (mole fraction) (in propylene glycol, 303.15 K): 0.00193 | solubility (mole fraction) (in propylene glycol, 308.15 K): 0.00213
